Experimental data from patent US20260207590A1, “CTPS1 INHIBITORS FOR USE IN THE TREATMENT OF CTPS2 DEFICIENT CANCER” (STEP PHARMA S.A.S., priority 2022, published 2026).

Assays:
human cancer cell lines = experiment: Human cancer cell line viability with CTPS-IA (CellTiter-Glo, 72 hours), IC50 correlated with CTPS1/CTPS2 RNA expression; assay type: cell-based; details: all three cell line sets (19, 60, 103 lines); P-value>0.05 in all cases
Text: CTPS2 expression levels were also found to correlate with IC50 values for CTPS-IA. […] A nonlinear regression model was used to calculate half maximal inhibitory concentration (IC50). CTPS1 and CTPS2 expression levels, measured by RNA abundance, were either generated by RNA sequencing or retrieved from the publicly available Cancer Cell Line Encyclopedia. In a set of 19 human cancer cell lines derived from haematological cancers, lower CTPS2 expression was associated with increased sensitivity to CTPS-IA (Pearson correlation r=0.50, P-value=0.0007). In a set of 60 human cancer cell lines covering common cancer types, lower CTPS2 expression was associated with increased sensitivity to CTPS-IA (Pearson correlation r=0.24, P-value=<0.0001). In an independent set of 103 human cancer cell lines covering common cancer types, lower CTPS2 expression was associated with increased sensitivity to CTPS-IA (Pearson correlation r=0.14, P-value=<0.0001).

CTPS1 = biological target: T1, CTPS1 (Homo sapiens, UniProt P17812); details: see e.g. WO2020083975 (CTPS-IA), WO2020245664 (CTPS-IB); cited from earlier work
T1 sequence (P17812 1-591): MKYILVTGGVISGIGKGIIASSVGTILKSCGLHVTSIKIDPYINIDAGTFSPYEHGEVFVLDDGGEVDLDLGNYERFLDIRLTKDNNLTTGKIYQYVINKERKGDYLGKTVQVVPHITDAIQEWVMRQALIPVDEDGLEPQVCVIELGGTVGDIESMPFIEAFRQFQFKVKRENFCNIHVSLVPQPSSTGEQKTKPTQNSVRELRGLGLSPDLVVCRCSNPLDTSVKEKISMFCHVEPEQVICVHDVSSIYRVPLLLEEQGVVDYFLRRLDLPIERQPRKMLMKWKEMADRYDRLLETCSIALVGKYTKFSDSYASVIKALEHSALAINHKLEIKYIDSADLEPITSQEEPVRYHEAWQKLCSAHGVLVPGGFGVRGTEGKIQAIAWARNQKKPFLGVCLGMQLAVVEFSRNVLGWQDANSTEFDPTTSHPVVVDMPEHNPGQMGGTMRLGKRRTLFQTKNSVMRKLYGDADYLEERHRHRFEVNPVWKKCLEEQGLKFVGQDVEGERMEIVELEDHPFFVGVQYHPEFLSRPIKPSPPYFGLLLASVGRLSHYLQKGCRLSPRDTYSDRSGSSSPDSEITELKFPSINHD

Row | Compound | Association of the level of CTPS1 expression with sensitivity to CTPS-IA (human cancer cell lines) | CTPS1 inhibition and selectivity (in words) (CTPS1)
1 | CCOc1cncc(-c2ccc(NC(=O)C3(c4ccnc(NS(=O)(=O)C5CC5)n4)CCOCC3)nc2)n1 [CTPS-IA, 4-(2-(cyclopropanesulfonamido)pyrimidin-4-yl)-N-(5-(6-ethoxypyrazin-2-yl)pyridin-2-yl)tetrahydro-2H-pyran-4-carboxamide] | not associated with sensitivity to CTPS-IA | potent and selective inhibitor of CTPS1
2 | CCOc1cncc(-c2ccc(NC(=O)C3(c4ccnc(NS(=O)(=O)CC)n4)CCOCC3)nc2)n1 [CTPS-IB, N-(5-(6-ethoxypyrazin-2-yl)pyridin-2-yl)-4-(2-(ethylsulfonamido)pyrimidin-4-yl)tetrahydro-2H-pyran-4-carboxamide] | – | potent and selective inhibitor of CTPS1
